Results taken from patent publication US9650339B2, “Inhibitors of histone demethylases” (Gilead Sciences, Inc., priority 2013, dated 2017).

Tests used:
Format in all cases: biochemical
KDM3A (JMJD1A) = molecular target: T1, KDM3A (JMJD1A) (Homo sapiens, UniProt Q9Y4C1); assay: Histone lysine demethylase AlphaLISA assay, KDM3A; settings: read-out: KDM3 A HDME Inhibition IC50
T1 construct: 2-end; purchased BPS Bioscience, US; host or cells: Bac (baculovirus system)
T1 sequence (Q9Y4C1 2-1321 limits assumed): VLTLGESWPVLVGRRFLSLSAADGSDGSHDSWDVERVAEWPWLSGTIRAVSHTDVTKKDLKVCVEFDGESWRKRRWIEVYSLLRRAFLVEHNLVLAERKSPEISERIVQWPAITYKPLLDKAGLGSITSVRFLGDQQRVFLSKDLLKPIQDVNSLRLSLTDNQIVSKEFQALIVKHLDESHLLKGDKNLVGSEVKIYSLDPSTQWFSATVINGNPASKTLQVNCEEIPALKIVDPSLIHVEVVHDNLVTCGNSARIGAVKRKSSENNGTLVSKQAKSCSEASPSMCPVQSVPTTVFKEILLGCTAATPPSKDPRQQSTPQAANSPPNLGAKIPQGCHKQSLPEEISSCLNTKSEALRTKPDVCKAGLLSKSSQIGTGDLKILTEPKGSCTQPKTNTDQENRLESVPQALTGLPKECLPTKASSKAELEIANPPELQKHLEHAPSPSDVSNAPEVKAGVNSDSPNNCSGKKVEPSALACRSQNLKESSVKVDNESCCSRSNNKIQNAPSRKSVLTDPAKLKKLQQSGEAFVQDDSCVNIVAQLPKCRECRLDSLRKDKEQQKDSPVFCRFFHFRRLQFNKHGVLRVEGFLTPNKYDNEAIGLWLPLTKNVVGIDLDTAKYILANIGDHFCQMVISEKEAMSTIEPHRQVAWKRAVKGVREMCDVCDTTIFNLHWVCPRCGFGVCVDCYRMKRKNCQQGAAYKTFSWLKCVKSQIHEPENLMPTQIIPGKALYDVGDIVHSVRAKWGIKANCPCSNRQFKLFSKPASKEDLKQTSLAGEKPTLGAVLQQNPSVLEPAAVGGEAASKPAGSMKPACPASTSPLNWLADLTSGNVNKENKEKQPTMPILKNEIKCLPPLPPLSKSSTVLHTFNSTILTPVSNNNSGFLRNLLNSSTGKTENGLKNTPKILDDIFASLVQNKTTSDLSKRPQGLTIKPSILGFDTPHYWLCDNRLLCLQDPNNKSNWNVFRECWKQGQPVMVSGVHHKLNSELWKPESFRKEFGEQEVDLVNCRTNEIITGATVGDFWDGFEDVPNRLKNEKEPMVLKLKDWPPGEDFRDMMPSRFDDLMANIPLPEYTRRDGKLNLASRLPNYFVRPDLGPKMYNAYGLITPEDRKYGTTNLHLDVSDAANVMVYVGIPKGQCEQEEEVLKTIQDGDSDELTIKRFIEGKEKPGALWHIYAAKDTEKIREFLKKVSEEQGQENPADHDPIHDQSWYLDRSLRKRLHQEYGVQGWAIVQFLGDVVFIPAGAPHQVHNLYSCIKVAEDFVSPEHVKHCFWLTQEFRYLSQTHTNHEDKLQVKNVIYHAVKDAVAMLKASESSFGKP
Outline: (§1)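 Enzyme 10 min pre-incubation; + compound (3% DMSO soln) 10 min; + biotin-H3 methyl-Lys peptide, 25 μM L-Asc, 10 μM α-KG, RT. Read: AlphaLISA acceptor beads, then streptavidin donor beads, RT, dark.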

KDM4C (JMJD2C) = molecular target: T2, KDM4C (JMJD2C) (Homo sapiens, UniProt Q9H3R0); assay: Histone lysine demethylase AlphaLISA assay, KDM4C; settings: read-out: KDM4C HDME Inhibition IC50
T2 sequence (Q9H3R0 1-349): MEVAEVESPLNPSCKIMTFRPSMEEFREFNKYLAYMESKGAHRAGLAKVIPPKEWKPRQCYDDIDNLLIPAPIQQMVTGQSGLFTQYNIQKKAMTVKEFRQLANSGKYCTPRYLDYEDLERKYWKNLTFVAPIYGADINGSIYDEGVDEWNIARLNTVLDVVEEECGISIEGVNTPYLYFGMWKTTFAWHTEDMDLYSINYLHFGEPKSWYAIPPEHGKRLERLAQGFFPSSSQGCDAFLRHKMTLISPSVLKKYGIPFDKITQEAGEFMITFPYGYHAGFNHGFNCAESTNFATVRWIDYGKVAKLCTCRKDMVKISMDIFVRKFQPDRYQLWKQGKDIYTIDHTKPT
Outline: as §1

KDM5C (JARID1C) = molecular target: T3, KDM5C (JARID1C) (Homo sapiens, UniProt P41229); assay: Histone lysine demethylase AlphaLISA assay, KDM5C; settings: read-out: KDM5C HDME Inhibition IC50
T3 construct: 2-1560; purchased BPS; host or cells: Bac (baculovirus system)
T3 sequence (P41229 2-1560): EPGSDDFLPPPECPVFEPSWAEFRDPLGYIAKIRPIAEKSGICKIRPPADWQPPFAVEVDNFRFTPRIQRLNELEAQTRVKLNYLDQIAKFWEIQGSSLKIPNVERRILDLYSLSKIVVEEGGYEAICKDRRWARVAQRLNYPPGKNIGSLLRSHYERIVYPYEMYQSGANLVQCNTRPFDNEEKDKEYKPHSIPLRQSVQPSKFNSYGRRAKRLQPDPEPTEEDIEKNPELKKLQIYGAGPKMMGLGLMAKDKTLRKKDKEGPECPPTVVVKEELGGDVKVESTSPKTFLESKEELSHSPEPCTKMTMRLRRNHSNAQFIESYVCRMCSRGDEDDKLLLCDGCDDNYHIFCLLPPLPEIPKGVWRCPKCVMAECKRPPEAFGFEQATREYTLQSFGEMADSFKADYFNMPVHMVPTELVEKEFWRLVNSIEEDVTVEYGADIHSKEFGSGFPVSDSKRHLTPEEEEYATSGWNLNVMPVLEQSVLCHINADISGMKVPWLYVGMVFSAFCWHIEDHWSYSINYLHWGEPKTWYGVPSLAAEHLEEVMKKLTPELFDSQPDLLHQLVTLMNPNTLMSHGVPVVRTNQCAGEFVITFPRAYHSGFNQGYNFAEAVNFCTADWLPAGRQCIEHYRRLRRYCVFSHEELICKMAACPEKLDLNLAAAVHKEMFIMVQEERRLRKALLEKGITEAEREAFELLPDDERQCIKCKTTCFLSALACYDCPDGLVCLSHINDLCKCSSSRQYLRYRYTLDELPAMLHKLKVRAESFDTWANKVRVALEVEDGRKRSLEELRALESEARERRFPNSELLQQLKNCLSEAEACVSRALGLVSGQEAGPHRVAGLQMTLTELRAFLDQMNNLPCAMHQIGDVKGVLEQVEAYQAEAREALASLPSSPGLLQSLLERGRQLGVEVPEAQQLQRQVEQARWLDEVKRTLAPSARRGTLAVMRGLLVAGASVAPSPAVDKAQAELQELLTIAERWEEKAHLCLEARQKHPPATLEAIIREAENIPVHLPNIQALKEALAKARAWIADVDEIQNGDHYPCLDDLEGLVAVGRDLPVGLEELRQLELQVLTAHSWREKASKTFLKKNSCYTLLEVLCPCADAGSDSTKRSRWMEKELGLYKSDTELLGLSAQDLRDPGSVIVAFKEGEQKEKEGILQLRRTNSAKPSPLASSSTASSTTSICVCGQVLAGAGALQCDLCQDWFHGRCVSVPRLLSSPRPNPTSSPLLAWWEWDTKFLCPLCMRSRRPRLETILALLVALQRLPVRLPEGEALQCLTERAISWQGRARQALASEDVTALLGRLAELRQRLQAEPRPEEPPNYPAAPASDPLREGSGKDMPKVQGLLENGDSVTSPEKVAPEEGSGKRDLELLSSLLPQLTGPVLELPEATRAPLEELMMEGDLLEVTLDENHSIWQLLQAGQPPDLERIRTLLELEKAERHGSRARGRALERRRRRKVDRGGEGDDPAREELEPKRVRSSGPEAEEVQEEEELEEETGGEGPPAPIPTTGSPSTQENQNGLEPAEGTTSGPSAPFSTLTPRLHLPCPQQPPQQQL
Outline: as §1

KDM4A (JMJD2A) = molecular target: T4, KDM4A (JMJD2A) (Homo sapiens, UniProt O75164); assay: Histone lysine demethylase AlphaLISA assay, KDM4A; settings: read-out: KDM4A HDME Inhibition IC50
T4 construct: 1-350; purchased BPS Bioscience, US; host or cells: E. coli
T4 sequence (O75164 1-350): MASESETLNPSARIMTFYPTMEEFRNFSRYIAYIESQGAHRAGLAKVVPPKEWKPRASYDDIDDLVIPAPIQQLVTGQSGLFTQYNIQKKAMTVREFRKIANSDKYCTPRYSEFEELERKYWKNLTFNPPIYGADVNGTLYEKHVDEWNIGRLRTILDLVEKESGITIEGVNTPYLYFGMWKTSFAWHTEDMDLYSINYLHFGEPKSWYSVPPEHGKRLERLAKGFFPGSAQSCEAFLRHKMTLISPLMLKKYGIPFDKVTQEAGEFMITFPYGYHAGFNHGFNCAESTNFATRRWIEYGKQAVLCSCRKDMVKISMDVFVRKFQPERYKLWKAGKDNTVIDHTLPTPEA
Outline: as §1

IC50 (KDM3A (JMJD1A)) [nM]	IC50 (KDM4C (JMJD2C)) [nM]	IC50 (KDM5C (JARID1C)) [nM]	IC50 (KDM4A (JMJD2A)) [nM]	SMILES
> 2500	250 to 2500	< 250	> 2500	CCN(CC)CCCCNCc1cc(/C=N/CCO)ccn1 [Compound 61, 2-[{[2-({[4-(diethylamino)-butyl]amino}-methyl)pyridin-4-yl]methylidene}-amino]ethan-1-ol]
> 2500	250 to 2500	> 2500	250 to 2500	O=Cc1ccnc(CNCC(=O)N2CCC(Cc3ccccc3)CC2)c1 [Compound 106, 2-({[2-(4-benzylpiperidin-1-yl)-2-oxoethyl]-amino}methyl)-pyridine-4-carbaldehyde]
> 2500	> 2500	250 to 2500	> 2500	c1ccc(CN2CCC[C@H]2CNCc2cc(CNCC3CC3)ccn2)cc1 [Compound 16, {[(2S)-1-benzylpyrrolidin-2-yl]methyl}[(4-{[(cyclopropylmethyl)-amino]methyl}pyridin-2-yl)methyl]amine]
> 2500	< 250	< 250	< 250	CCN(CCN(C)C)C(=O)CNCc1cc(/C=N/CCO)ccn1 [Compound 66]
> 2500	> 2500	< 250	250 to 2500	CN(C)CCNCc1cc(C=O)ccn1 [Compound 110, 2-({[2-(dimethylamino)-ethyl]amino}methyl)-pyridine-4-carbaldehyde]
> 2500	250 to 2500	< 250	250 to 2500	CCN(CC)C(=O)CNCc1cc(/C=N/CCC2CCCCC2)ccn1 [Compound 57, 2-[({4-[[(2-cyclohexylethyl)imino]-methyl]pyridin-2-yl}methyl)amino]-N,N-diethylacetamide]
> 2500	< 250	< 250	> 2500	C(=N\C1CC1)/c1ccnc(CNCCCCN2CCC2)c1 [Compound 44, N-{[2-({[4-(azetidin-1-yl)butyl]amino}methyl)-pyridin-4-yl]methylidene}-cyclopropanamine]
> 2500	> 2500	< 250	> 2500	CN(C)CCCCCNCc1cc(/C=N/C2CC2)ccn1 [Compound 47, N-{[2-({[5-(dimethylamino)-pentyl]amino}-methyl)pyridin-4-yl]methylidene}-cyclopropanamine]
250 to 2500	250 to 2500	< 250	< 250	O=C(CNCc1cc(/C=N/C2CC2)ccn1)NC1CCN(Cc2ccccc2)C1 (stereo not drawn) [Compound 53, N-(1-benzylpyrrolidin-3-yl)-2-[({4-[N-cyclopropyl-carboximidoyl]pyridin-2-yl}methyl)amino]-acetamide]
> 2500	> 2500	> 2500	250 to 2500	CCN(CC)CCCCN(Cc1cc(CNC(=O)C(F)(F)F)ccn1)C(=O)C(F)(F)F [Compound 6, N-[4-(diethylamino)butyl]-- 2,2,2-trifluoro-N-({4-[(trifluoroacetamido)-methyl]pyridin-2-yl}methyl)acetamide]
> 2500	> 2500	250 to 2500	250 to 2500	C#CCN(C)C(=O)CNCc1cc(/C=N/C2CC2)ccn1 [Compound 56, 2-[({4-[N-cyclopropyl-carboximidoyl]-pyridin-2-yl}methyl)amino]-N-methyl-N-(prop-2-yn-1-yl)acetamide]
> 2500	250 to 2500	< 250	> 2500	CN(C)C/C=C/CNCc1cc(C=O)ccn1 [Compound 98, 2-({[(2E)-4-(dimethylamino)but-2-en-1-yl]amino}-methyl)pyridine-4-carbaldehyde]
> 2500	> 2500	< 250	> 2500	CN1CCCC1CCNCc1cc(/C=N/C2CC2)ccn1 (stereo not drawn) [Compound 40, N-{[2-({[2-(l-methylpyrrolidin-2-yl)ethyl]amino}methyl)-pyridin-4-yl]methylidene}-cyclopropanamine]
> 2500	> 2500	< 250	250 to 2500	CCN(CC)CCCCN(Cc1cc(C=O)ccn1)C(=O)C(F)(F)F [Compound 115, N-[4-(diethylamino)butyl]-2,2,2-trifluoro-N-[(4-formylpyridin-2-yl)methyl]acetamide]
> 2500	> 2500	< 250	> 2500	COc1ccccc1CN1CCC(NC(=O)CNCc2cc(CN)ccn2)CC1 [Compound 9, 2-({[4-(aminomethyl)pyridin-2-yl]methyl}amino)-N-{1-[(2-methoxyphenyl)methyl]-piperidin-4-yl}acetamide]
> 2500	> 2500	> 2500	250 to 2500	CON=Cc1ccnc(CNCCCN(C)C)c1 [Compound 64, [3-(dimethylamino)-propyl]({4-[(methoxyimino)-methyl]pyridin-2-yl}methyl)amine]
> 2500	250 to 2500	250 to 2500	> 2500	CN(C)C(=O)CNCc1cc(CNCCF)ccn1 [Compound 14, 2-{[(4-{[(2-fluoroethyl)amino]-methyl}pyridin-2-yl)methyl]amino}-N,N-dimethylacetamide]
> 2500	< 250	< 250	> 2500	O=Cc1ccnc(CNCC(=O)N2CCC[C@@H]2CN2CCCC2)c1 [Compound 102, 2-[({2-oxo-2-[(2R)-2-(pyrrolidin-1-ylmethyl)pyrrolidin-1-yl]ethyl}amino)-methyl]pyridine-4-carbaldehyde]
> 2500	> 2500	250 to 2500	250 to 2500	CCN(CC)CCCCNCc1cc(CNC(=O)C(F)(F)F)ccn1 [Compound 1, N-{[2-({[4-(diethylamino)butyl]-amino}methyl)pyridin-4-yl]methyl}-2,2,2-trifluoroacetamide]
> 2500	> 2500	< 250	> 2500	CN(C)CCC/N=C/c1ccnc(CNCCCN(C)C)c1 [Compound 37, [3-(dimethylamino)propyl]-({4-[{[3-(dimethylamino)propyl]-imino}methyl]pyridin-2-yl}methyl)amine]
> 2500	> 2500	< 250	250 to 2500	CCSCCNCc1cc(/C=N/C2CC2)ccn1 [Compound 39, N-{[2-({[2-(ethylsulfanyl)-ethyl]amino}methyl)pyridin-4-yl]methylidene}-cyclopropanamine]
